In experiment [1] the test system is Plasmodium falciparum (strain NF54). Description: Antimalarial activity test: growth of Plasmodium falciparum in infected human erythrocytes, 3H-hypoxanthine incorporation. The format is cell-based. The following applies: strain NF54 sensitive to chloroquine, 72 h total incubation. In short, it runs like this:
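Chloroquine-sensitive NF54 parasites in human erythrocytes (1.25% hematocrit, 0.15% parasitemia) were grown in hypoxanthine-free RPMI 1640 with HEPES and Albumax II, with compound in twofold serial dilution, at 37 °C under 93% N2/4% CO2/3% O2. After 48 h, 3H-hypoxanthine (0.5 μCi) was added for 24 h. Scintillation counts versus drug-free control gave IC50.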

A further experiment has as its target human PI3Kα (Homo sapiens (Human), UniProt P42336). Description: Human PI3Kα activity test (luciferin/luciferase ATP consumption, KinaseGlo). The format is biochemical. The following applies: PI3Kα (p110α/p85α), 50 μM PIP2, 2 μM ATP, 90 minutes; read-out: IC50 Human PI3Kα.
[2] abbreviates: Plasmodium falciparum, Erythrocyte.

IC50 data for 21 compounds are collected here from patent publication US9321790B2, “Pyrimidinone derivatives as antimalarial agents” (SANOFI, priority 2012, dated 2016).

The term pIC50 denotes the IC50 on a negative log10 scale, so that one unit is a factor of ten.

The structures appear in SMILES notation. pIC50: −log10 of the molar value.

Chain of human PI3Kα (P42336 whole entry): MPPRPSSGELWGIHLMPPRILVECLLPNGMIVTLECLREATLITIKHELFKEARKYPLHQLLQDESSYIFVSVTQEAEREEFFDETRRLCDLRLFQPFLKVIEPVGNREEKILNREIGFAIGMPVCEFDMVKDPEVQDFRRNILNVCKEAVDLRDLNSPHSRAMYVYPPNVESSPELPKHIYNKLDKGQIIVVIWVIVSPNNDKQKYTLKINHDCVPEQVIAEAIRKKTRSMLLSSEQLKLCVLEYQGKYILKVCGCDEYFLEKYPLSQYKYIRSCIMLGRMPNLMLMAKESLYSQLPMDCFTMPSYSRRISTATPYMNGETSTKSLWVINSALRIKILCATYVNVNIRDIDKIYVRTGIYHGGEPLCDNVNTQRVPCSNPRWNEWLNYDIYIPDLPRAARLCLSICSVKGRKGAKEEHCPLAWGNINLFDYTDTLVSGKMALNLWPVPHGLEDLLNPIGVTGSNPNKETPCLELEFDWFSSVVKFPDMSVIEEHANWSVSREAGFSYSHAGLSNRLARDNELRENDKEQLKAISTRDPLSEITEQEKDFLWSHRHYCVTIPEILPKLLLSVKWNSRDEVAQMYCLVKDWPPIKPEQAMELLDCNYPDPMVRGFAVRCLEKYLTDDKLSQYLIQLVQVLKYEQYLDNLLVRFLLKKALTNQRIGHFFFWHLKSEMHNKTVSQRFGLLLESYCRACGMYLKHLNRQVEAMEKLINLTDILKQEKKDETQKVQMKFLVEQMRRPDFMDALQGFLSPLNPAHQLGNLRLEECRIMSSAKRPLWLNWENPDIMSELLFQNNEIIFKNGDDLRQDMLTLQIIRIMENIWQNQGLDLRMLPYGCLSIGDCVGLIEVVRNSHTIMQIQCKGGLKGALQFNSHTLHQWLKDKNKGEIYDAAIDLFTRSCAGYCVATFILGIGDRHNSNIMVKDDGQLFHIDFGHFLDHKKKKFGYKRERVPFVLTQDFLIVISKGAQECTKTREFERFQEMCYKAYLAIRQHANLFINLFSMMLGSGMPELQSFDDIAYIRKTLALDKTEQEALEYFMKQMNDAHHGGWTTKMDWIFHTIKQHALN
Chain of human PI3Kα (P27986 whole entry partner): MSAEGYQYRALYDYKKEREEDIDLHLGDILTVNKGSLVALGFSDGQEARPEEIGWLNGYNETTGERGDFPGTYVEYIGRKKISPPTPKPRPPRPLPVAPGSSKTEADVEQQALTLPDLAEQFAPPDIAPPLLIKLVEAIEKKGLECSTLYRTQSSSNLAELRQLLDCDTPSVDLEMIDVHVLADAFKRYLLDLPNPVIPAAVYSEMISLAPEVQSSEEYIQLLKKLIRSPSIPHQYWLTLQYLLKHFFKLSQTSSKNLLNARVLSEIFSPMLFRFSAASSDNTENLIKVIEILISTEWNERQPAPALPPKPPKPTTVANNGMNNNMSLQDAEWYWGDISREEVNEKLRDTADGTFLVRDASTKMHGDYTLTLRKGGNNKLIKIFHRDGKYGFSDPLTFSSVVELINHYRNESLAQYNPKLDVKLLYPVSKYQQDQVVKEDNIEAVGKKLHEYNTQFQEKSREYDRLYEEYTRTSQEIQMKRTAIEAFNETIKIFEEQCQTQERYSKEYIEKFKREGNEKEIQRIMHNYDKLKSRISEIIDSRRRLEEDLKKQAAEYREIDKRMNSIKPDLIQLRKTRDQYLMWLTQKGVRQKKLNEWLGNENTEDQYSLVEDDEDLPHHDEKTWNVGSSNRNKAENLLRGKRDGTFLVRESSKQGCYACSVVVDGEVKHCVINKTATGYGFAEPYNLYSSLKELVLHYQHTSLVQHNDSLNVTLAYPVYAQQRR
Description for human PI3Kα: The test uses a luciferin/luciferase system to measure the concentration of ATP and its consumption during the enzymatic reaction.
After 90 minutes, the reaction is quenched by adding 20 μl/well of KinaseGlo reagent (Promega V6713). After 10 minutes in the dark, the luminescence is read using a PHERAStar microplate reader (reading at 0.8 sec/well).

For `O=C(CN1c2nc(N3C[C@@H]4C[C@H]3CO4)cc(=O)n2CC[C@H]1C(F)(F)F)c1ccc(N2CCOCC2)cc1` [Compound 41, (8S)-9-[2-(4-Morpholin-4-ylphenyl)-2-oxoethyl]-2-(1S,4S)-2-oxa-5-azabicyclo[2.2.1]hept-5-yl-8-trifluoromethyl-6,7,8,9-tetrahydropyrimido[1,2-a]pyrimidin-4-one], the results for the pIC50 (in experiment [1] (setting [2]); at human PI3Kα) were 6.03 and 5.38, respectively.
For the compound `N#Cc1ccc(C(=O)CN2c3nc(N4C[C@@H]5C[C@H]4CO5)cc(=O)n3CC[C@H]2C(F)(F)F)cc1` [Compound 42, 4-[2-((S)-8-(1S,4S)-2-Oxa-5-azabicyclo[2.2.1]hept-5-yl-6-oxo-2-trifluoromethyl-3,4-dihydro-2H,6H-pyrimido[1,2-a]pyrimidin-1-yl)acetyl]benzonitrile], the negative-log IC50 (pIC50) in experiment [1] was 7.10; on human PI3Kα, less than 5.00.
With `Cc1ncsc1C(=O)CN1c2nc(N3C[C@@H]4C[C@H]3CO4)cc(=O)n2CC[C@H]1C(F)(F)F` [Compound 43, (8S)-9-[2-(4-methylthiazol-5-yl)-2-oxoethyl]-2-(1S,4S)-2-oxa-5-azabicyclo[2.2.1]hept-5-yl-8-trifluoromethyl-6,7,8,9-tetrahydropyrimido[1,2-a]pyrimidin-4-one], the results for the pIC50 (in experiment [1] (setting [2]); on human PI3Kα) were 7.38 and less than 5.00, respectively.
In the case of `O=C(CN1c2nc(N3C[C@@H]4C[C@H]3CO4)cc(=O)n2CC[C@H]1C(F)(F)F)c1cncc(Cl)c1` [Compound 44, (8S)-9-[2-(5-Chloropyrid-3-yl)-2-oxoethyl]-2-(1S,4S)-2-oxa-5-azabicyclo[2.2.1]hept-5-yl-8-trifluoromethyl-6,7,8,9-tetrahydropyrimido[1,2-a]pyrimidin-4-one], the negative-log IC50 (pIC50) in experiment [1] (setting [2]) was 6.97; on human PI3Kα it was less than 5.00.
Consider `COc1ccc(C(=O)CN2c3nc(N4C[C@@H]5C[C@H]4CO5)cc(=O)n3CC[C@H]2C(F)(F)F)cn1` [Compound 45, (8S)-9-[2-(6-methoxypyrid-3-yl)-2-oxoethyl]-2-(1S,4S)-2-oxa-5-azabicyclo[2.2.1]hept-5-yl-8-trifluoromethyl-6,7,8,9-tetrahydropyrimido[1,2-a]pyrimidin-4-one], for which the pIC50 in experiment [1] (setting [2]) is 6.95; on human PI3Kα, less than 5.00.
For `Cc1nocc1C(=O)CN1c2nc(N3C[C@@H]4C[C@H]3CO4)cc(=O)n2CC[C@H]1C(F)(F)F` [Compound 46, (8S)-9-[2-(3-Methylisoxazol-4-yl)-2-oxoethyl]-2-(1S,4S)-2-oxa-5-azabicyclo[2.2.1]hept-5-yl-8-trifluoromethyl-6,7,8,9-tetrahydropyrimido[1,2-a]pyrimidin-4-one], the pIC50 in experiment [1] (setting [2]) was 6.40; on human PI3Kα, less than 5.00.
Take `O=C(CN1c2nc(N3C[C@@H]4C[C@H]3CO4)cc(=O)n2CC[C@H]1C(F)(F)F)c1ccc2snnc2c1` [Compound 47, (8S)-9-(2-benzo[1,2,3]thiadiazol-5-yl-2-oxoethyl)-2-(1S,4S)-2-oxa-5-azabicyclo[2.2.1]hept-5-yl-8-trifluoromethyl-6,7,8,9-tetrahydropyrimido[1,2-a]pyrimidin-4-one]: the pIC50 in experiment [1] (setting [2]) is 7.89; at human PI3Kα, less than 5.00.
Take `O=C(CN1c2nc(N3C[C@@H]4C[C@H]3CO4)cc(=O)n2CC[C@H]1C(F)(F)F)c1ccc(F)cc1F` [Compound 48, (8S)-9-[2-(2,4-difluorophenyl)-2-oxoethyl]-2-(1S,4S)-2-oxa-5-azabicyclo[2.2.1]hept-5-yl-8-trifluoromethyl-6,7,8,9-tetrahydropyrimido[1,2-a]pyrimidin-4-one]: the pIC50 is 7.57 in experiment [1] (setting [2]) and less than 5.00 at human PI3Kα.
Consider `CCC(O)(CC)CCN1c2nc(N3C[C@@H]4C[C@H]3CO4)cc(=O)n2CC[C@H]1C(F)(F)F` [Compound 49, (8S)-9-(3-ethyl-3-hydroxypentyl)-2-(1S,4S)-2-oxa-5-azabicyclo[2.2.1]hept-5-yl-8-trifluoromethyl-6,7,8,9-tetrahydropyrimido[1,2-a]pyrimidin-4-one], for which the pIC50 in experiment [1] (setting [2]) was 8.22; on human PI3Kα it was 5.56.
For `CC(C)(O)CCN1c2nc(N3C[C@@H]4C[C@H]3CO4)cc(=O)n2CC[C@H]1C(F)(F)F` [Compound 50, (8S)-9-(3-hydroxy-3-methylbutyl)-2-(1S,4S)-2-oxa-5-azabicyclo[2.2.1]hept-5-yl-8-trifluoromethyl-6,7,8,9-tetrahydropyrimido[1,2-a]pyrimidin-4-one], the pIC50 in experiment [1] (setting [2]) is 8.10; at human PI3Kα, 5.37.
Consider `Cn1nc(CN2c3nc(N4C[C@@H]5C[C@H]4CO5)cc(=O)n3CC[C@H]2C(F)(F)F)c2ccccc21` [Compound 51, (8S)-9-(1-methyl-1H-indazol-3-ylmethyl)-2-(1S,4S)-2-oxa-5-azabicyclo[2.2.1]hept-5-yl-8-trifluoromethyl-6,7,8,9-tetrahydropyrimido[1,2-a]pyrimidin-4-one], for which the negative logarithm of the IC50 (pIC50) in experiment [1] (setting [2]) is 7.19; on human PI3Kα, less than 5.00.
`O=C(CN1c2nc(N3C[C@@H]4C[C@H]3CO4)cc(=O)n2CC[C@H]1C(F)(F)F)c1cnc(OCC2CC2)nc1` [Compound 52, (8S)-9-[2-(2-Cyclopropylmethoxypyrimidin-5-yl)-2-oxoethyl]-2-(1S,4S)-2-oxa-5-azabicyclo[2.2.1]hept-5-yl-8-trifluoromethyl-6,7,8,9-tetrahydropyrimido[1,2-a]pyrimidin-4-one]: the figures for the pIC50 (in experiment [1] (setting [2]); at human PI3Kα) were 6.89 and less than 5.00, respectively.
As to `Cc1noc(C)c1C(=O)CN1c2nc(N3C[C@@H]4C[C@H]3CO4)cc(=O)n2CC[C@H]1C(F)(F)F` [Compound 53, (8S)-9-[2-(3,5-dimethylisoxazol-4-yl)-2-oxoethyl]-2-(1S,4S)-2-oxa-5-azabicyclo[2.2.1]hept-5-yl-8-trifluoromethyl-6,7,8,9-tetrahydropyrimido[1,2-a]pyrimidin-4-one], the pIC50 in experiment [1] (setting [2]) was 6.06; at human PI3Kα, less than 5.00.
Take `CCC(O)(CC)CN1c2nc(N3C[C@@H]4C[C@H]3CO4)cc(=O)n2CC[C@H]1C(F)(F)F` [Compound 54, (8S)-9-(2-ethyl-2-hydroxybutyl)-2-(1S,4S)-2-oxa-5-azabicyclo[2.2.1]hept-5-yl-8-trifluoromethyl-6,7,8,9-tetrahydropyrimido[1,2-a]pyrimidin-4-one]: the pIC50 in experiment [1] (setting [2]) is 8.00; at human PI3Kα, 5.66.
Regarding `N#Cc1cccc(C(=O)CN2c3nc(N4C[C@@H]5C[C@H]4CO5)cc(=O)n3CC[C@H]2C(F)(F)F)c1` [Compound 55, 3-[2-((S)-8-(1S,4S)-2-Oxa-5-azabicyclo[2.2.1]hept-5-yl-6-oxo-2-trifluoromethyl-3,4-dihydro-2H,6H-pyrimido[1,2-a]pyrimidin-1-yl)acetyl]benzonitrile], the pIC50 in experiment [1] is 7.55; at human PI3Kα, less than 5.00.
On to `CC(C)C(=O)CN1c2nc(N3C[C@@H]4C[C@H]3CO4)cc(=O)n2CC[C@H]1C(F)(F)F` [Compound 56, (8S)-9-(3-methyl-2-oxobutyl)-2-(1S,4S)-2-oxa-5-azabicyclo[2.2.1]hept-5-yl-8-trifluoromethyl-6,7,8,9-tetrahydropyrimido[1,2-a]pyrimidin-4-one], for which the negative logarithm of the IC50 (pIC50) in experiment [1] (setting [2]) was 7.35; on human PI3Kα it was less than 5.00.
Regarding `CCOC(=O)Nc1ccc(C(=O)CN2c3nc(N4C[C@@H]5C[C@H]4CO5)cc(=O)n3CC[C@H]2C(F)(F)F)cn1` [Compound 57, ethyl {5-[2-((S)8-(1S,4S)-2-oxa-5-azabicyclo[2.2.]hept-5-yl-6-oxo-2-trifluoromethyl-3,4-dihydro-2H,6H-pyrimido[1,2-a]pyrimidin-1-yl)acetyl]pyrid-2-yl}carbamate], the negative logarithm of the IC50 (pIC50) in experiment [1] (setting [2]) was 7.19; on human PI3Kα, less than 5.00.
Regarding `COC(=O)Nc1ccc(C(=O)CN2c3nc(N4C[C@@H]5C[C@H]4CO5)cc(=O)n3CC[C@H]2C(F)(F)F)cn1` [Compound 58, {5-[2-((S)-8-(1S,4S)-2-Oxa-5-azabicyclo[2.2.1]hept-5-yl-6-oxo-2-trifluoromethyl-3,4-dihydro-2H,6H-pyrimido[1,2-a]pyrimidin-1-yl)acetyl]pyrid-2-yl}carbamic acid methyl ester], the results for the pIC50 (in experiment [1]; on human PI3Kα) were 7.28 and 5.19, respectively.
For `Cc1nc(CN2c3nc(N4C[C@@H]5C[C@H]4CO5)cc(=O)n3CC[C@H]2C(F)(F)F)no1` [Compound 59, (8S)-9-(5-Methyl-[1,2,4]oxadiazol-3-ylmethyl)-2-(1S,4S)-2-oxa-5-azabicyclo[2.2.1]hept-5-yl-8-trifluoromethyl-6,7,8,9-tetrahydropyrimido[1,2-a]pyrimidin-4-one], the pIC50 in experiment [1] (setting [2]) is 7.06; on human PI3Kα, less than 5.00.
As for `O=C(CN1c2nc(N3C[C@@H]4C[C@H]3CO4)cc(=O)n2CC[C@H]1C(F)(F)F)c1cccnc1C(F)(F)F` [Compound 60, (8S)-2-(1S,4S)-2-Oxa-5-azabicyclo[2.2.1]hept-5-yl-9-[2-oxo-2-(2-trifluoromethylpyrid-3-yl)ethyl]-8-trifluoromethyl-6,7,8,9-tetrahydropyrimido[1,2-a]pyrimidin-4-one], the pIC50 is 7.72 in experiment [1] and less than 5.00 at human PI3Kα.
As to `O=C(CN1c2nc(N3C[C@@H]4C[C@H]3CO4)cc(=O)n2CC[C@H]1C(F)(F)F)c1ccc2nsnc2c1` [Compound 61, (8S)-9-(2-Benzo[1,2,5]thiadiazol-5-yl-2-oxoethyl)-2-(1S,4S)-2-oxa-5-azabicyclo[2.2.1]hept-5-yl-8-trifluoromethyl-6,7,8,9-tetrahydropyrimido[1,2-a]pyrimidin-4-one], the figures for the pIC50 (in experiment [1] (setting [2]); on human PI3Kα) were 6.89 and less than 5.00, respectively.
